Measured values reported in patent US20180000802A1, “PHARMACEUTICAL COMPOSITION FOR PREVENTION AND TREATMENT OF MENTAL DISEASE WITH ENHANCED NMDAR FUNCTION” (INSTITUTE FOR BASIC SCIENCE, priority 2015, published 2018).
Entries after “also recorded” stand apart in the source; their conditions may differ.

Tests used:
IRSp53 deficient mice = experiment: 3-chamber sociability test; type: in vivo, mouse; conditions: memantine 10 mg/kg, MPEP 30 mg/kg; for mice preference (sociability behavior) in the 3-chamber sociability test: intraperitoneal injection 30 minutes before the test, vs saline control; for sedation due to side effects: intraperitoneal injection
Procedure: For the experiment animals of the present invention, wild-type mice backcrossed into a C57BL/6J background and IRSp53 deficient mice were used. The mice were at 2-4 months of age. In addition, in the present invention, all of the experiments were conducted by maintaining a temperature of 20-22° C. and a humidity of 30-40% while the lights are turned on during 7:00 am to 7:00 pm. As the memantine, which is an NMDAR inhibitor and the MGluR inhibitor, the MPEP indirectly inhibiting the NMDAR is dissolved in physiological saline and used. The memantine is used in a concentration of 10 mg (10 mg/kg) per unit weight, and the MPEP is used in a concentration of 30 mg (30 mg/kg) per unit weight, and the drug was administered to the experiment mice by intraperitoneal injection before 30 minutes of every experiment. NMDAR was tested with respect to the sociability behavior of hyperactivated mice. The 3-chamber sociability test and the direct interaction test, which are the most widely used among the behavioral experiments for identifying sociability behavior of mice. The 3-chamber sociability test was conducted by using a behavior experiment box separated into 3 sections. […] A, B, and C of FIG. 1 show the measurement based on the box bottom, the horizontal side surface and the vertical side surface, respectively, and the experiment box was manufactured exposing that the top so the experiment may be photographed by a camera (FIG. 1). In the basic 3-chamber sociability test, a mouse (stranger) was placed in one side and an object (small toy block) without scent was placed in the other side, and the normal mouse (WT) and the deficient mouse were placed in the middle chamber to observe how much attention was given to the other mouse and explored and time was spent. The detailed experiment method of the present invention is described below. First, the wild-type mouse and the IRSp53 deficient mouse were prepared. In addition, before 10 minutes of the experiment, the mouse to be experimented was put into a soundproof booth in which the experiment was to be conducted. 10 minutes later, the holes in the inner wall were blocked and the mouse was put into the middle area. Another 10 minutes later, the holes were opened, and the mouse was allowed to move freely around the 3 chambers. […] During 10 minutes of experiment where the Stranger 1 and the object were placed, the time of the mouse staying at the two areas were measured. In addition, to measure the time of the actual mice exploring the stranger 1 or the object, the time when the nose of the mouse crosses over a virtual line 2 cm away from the plastic cup was measured. […]

NMDAR [1] = experiment: NMDA/AMPA ratio, electrophysiology in brain slices; type: cell-based; conditions: IRSp53 deficient mouse, ratio increased vs wild-type; MPEP treatment
Procedure: (§1) To observe whether the memantine and the MPEP restore the NMDAR function observed on the hippocampus of the IRSp53 deficient mice to a normal range, the electrical signal flow of the synapses through the NMDAR was measured by the electrophysiological experiment.
In the present experiment, the Long-term potentiation (LTP) and the Long-term depression experiments were conducted. First, the NMDAR properties of the nerve cell of the IRSp53 deficient mice were electrophysiologically measured. The measurement was experimented and conducted by the method disclosed in the paper of Kim M H et al. (Kim, M. H. et al. Enhanced NMDA Receptor-Mediated Synaptic Transmission, Enhanced Long-Term Potentiation, and Impaired Learning and Memory in Mice Lacking IRSp53. J Neurosci 29, 1586-1595, doi:Doi 10.1523/Jneurosci.4306-08.2009 (2009)). The equipment used for the electrophysiological measurement was MultiClamp 700B amplifier and Axopatch 200B of Molecular Devices, and Clampex 9.2 and Clampfit 9 software of the same company were used. During the experiment, BX50WI microscope of Olympus was used.
In the present experiment, first, for all of the electrophysiological experiment, brain slices were made from the brains of the normal mice and the IRSp53 deficient mice. To make the slices, VT1200S model vibratome of Leica was used. […]

NMDAR [2] = experiment: Electrophysiological measurement of NMDAR-LTD in hippocampal brain slices; type: cell-based; conditions: hippocampal brain slices of IRSp53 deficient mouse, weaker NMDAR-LTD than in normal mouse; memantine treatment
Procedure: as §1
When the NMDAR is activated by electrically stimulating the never cell, an ion transferred from the outside of the nerve cell to the inside of the nerve cell through the NMDAR according to the activation level exists, and by the ion concentration difference of the inside and outside of the cell, various proteins inside the cell are also activated, thereby showing electrical reaction of the nerve cell with respect to the stimulation. The state in which this reaction is maintained for 30 minutes or longer is called Long-term potentiation (LTP) and Long-term depression (LTD), and when the NMDAR is intensively activated, the LTP may be induced, and when the NMDAR is weakly activated a long-term weakening, LTD may be induced.
In the present experiment, the Long-term potentiation (LTP) and the Long-term depression experiments were conducted. First, the NMDAR properties of the nerve cell of the IRSp53 deficient mice were electrophysiologically measured. […]

IRSp53 deficient mouse = experiment: Nerve cell firing of the medial prefrontal cortex in the anesthetized mouse; type: in vivo; conditions: IRSp53 deficient mice, urethane anesthesia, 10 mg/kg intraperitoneally, observed after 30 minutes
Procedure: (§2) The memantine was administered to the IRSp53 deficient mouse, and the synapse of the medial prefrontal cortex was structurally and functionally analyzed. In the experiment, the brain slices were not made, an anesthetic drug (1.5 g/kg) named Urethane was used on the mouse to perform the electrophysiological experiment in a condition in which the neural circuitry in the mouse is maintained, and the electrical signal firing of the nerve cell was observed, In detail, in the experiment, the mouse was anesthetized, a glass electrode for measuring the electrical signal was inserted in the medial prefrontal cortex and the hippocampus, and measured. A and I of FIG. 7 show the positions through which each electrode is inserted. From the result of comparing the nerve cell firing of the medial prefrontal cortex of the IRSp53 deficient mouse, in the IRSp53 deficient mouse, the nerve cell firing of the medial prefrontal cortex decreased. Specifically, in the IRSp53 deficient mouse, the nerve cell firing specific to the excitatory nerve cell decreased (B, C and D of FIG. 7).

[3] = system: wild-type mouse and IRSp53 deficient mouse; experiment: Nerve cell firing of the hippocampus in the anesthetized mouse; type: in vivo; conditions: IRSp53 deficient mouse compared to wild-type mice after memantine injection
Procedure: as §2

Row | SMILES | mice preference (sociability behavior) in the 3-chamber sociability test (IRSp53 deficient mice) | sedation due to side effects (IRSp53 deficient mice) | NMDA/AMPA ratio (NMDAR [1]) | NMDAR-LTD (NMDAR [2]) | nerve cell firing of the medial prefrontal cortex (IRSp53 deficient mouse) | nerve cell firing change in the hippocampus [3]
1 | Cc1cccc(C#Cc2ccccc2)n1 [MPEP, 2-Methyl-6-(phenylethynyl)pyridine] | improved to a level of the wild-type mice | no sedation due to side effects | restored to the level of the wild-type mouse | – | – | –
2 | CC12CC3CC(C)(C1)CC(N)(C3)C2 [memantine] | improved to a level of the wild-type mice | no sedation due to side effects | – | restored | the drug showed good effects; also recorded: restored to the normal range | the firing was greater
